Data taken from patent EP4603105A1, “PHARMACEUTICAL COMPOSITION CONTAINING CYCLIC COMPOUND HAVING SELECTIVE KRAS INHIBITORY EFFECT AGAINST HRAS AND NRAS” (CHUGAI SEIYAKU KABUSHIKI KAISHA, priority 2022, dated 2024).

Columns and labels:
[1] = molecular target: GDP-bound NRAS wild-type protein (Homo sapiens, UniProt P01111); assay: Binding to NRAS by surface plasmon resonance (SPR), KD and KD ratio to KRAS; conditions: ratio of the KD value with respect to GDP-bound NRAS wild-type protein to the KD value with respect to KRAS
Sequence of GDP-bound NRAS wild-type protein (P01111 whole entry): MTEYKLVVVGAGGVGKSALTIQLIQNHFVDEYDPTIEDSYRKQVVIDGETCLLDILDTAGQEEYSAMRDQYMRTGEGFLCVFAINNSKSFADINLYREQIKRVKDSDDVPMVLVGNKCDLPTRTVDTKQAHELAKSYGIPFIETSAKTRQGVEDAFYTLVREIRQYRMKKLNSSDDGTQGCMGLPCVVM
In short: (§1)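 Each cycle, GDP-bound biotin-Avi RAS was captured (~100–300 RU), compound concentrations were injected low to high for 75 s each at 100 µL/min, then the chip was regenerated. Buffer: HBS pH 7.4, 10 mM MgCl2, 10 µM GDP, 1 mM DTT, 4% DMSO; 30°C. KD from a 1:1 binding model.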

[2] = system: human lung cancer strain NCI-H441; format: cell-based
In short: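 Signal came from […] measured per well once the reagent was added. Beforehand, cells were cultured at 37°C and 5% carbon dioxide on a compound series serially diluted in dimethyl sulfoxide.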

[3] = molecular target: GDP-bound KRAS wild-type protein (Homo sapiens, UniProt P01116); assay: Binding to KRAS by surface plasmon resonance (SPR), dissociation constant KD; conditions: Single Cycle Kinetics, 1:1 binding model
Sequence of GDP-bound KRAS wild-type protein (P01116 1-188 isoform P01116-2): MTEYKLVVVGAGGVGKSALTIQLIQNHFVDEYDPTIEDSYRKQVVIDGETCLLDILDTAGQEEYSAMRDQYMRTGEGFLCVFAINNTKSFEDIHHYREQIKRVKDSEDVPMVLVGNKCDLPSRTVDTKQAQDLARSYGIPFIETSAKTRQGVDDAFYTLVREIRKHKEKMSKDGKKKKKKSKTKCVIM
In short: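 Recombinant RAS proteins bearing a biotinylated Avi tag and loaded with GDP served as the captured ligand, recaptured fresh every cycle. Binding responses were referenced to an uncoated surface and a buffer-only blank cycle. Dissociation constants were obtained by 1:1 model fitting at 30°C.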

HRAS wild-type protein = HRAS wild-type protein (Homo sapiens, UniProt P01112); assay: Binding to HRAS by surface plasmon resonance (SPR), KD and KD ratio to KRAS; conditions: ratio of the KD value with respect to HRAS wild-type protein to the KD value with respect to KRAS
Sequence of HRAS wild-type protein (P01112 whole entry): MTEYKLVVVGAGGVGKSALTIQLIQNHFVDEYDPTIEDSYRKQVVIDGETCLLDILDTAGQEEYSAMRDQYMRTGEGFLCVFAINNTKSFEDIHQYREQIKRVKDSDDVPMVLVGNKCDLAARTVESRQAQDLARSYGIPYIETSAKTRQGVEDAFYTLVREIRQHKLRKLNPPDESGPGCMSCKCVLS
In short: as §1

Structure (SMILES) | NRAS /KRAS [1] | IC50 [2] | Kd [3] | HRAS /KRAS (HRAS wild-type protein)
CC[C@H](C)[C@@H]1NC(=O)[C@H](C2CC2)N(C)C(=O)C[C@@H](C(=O)N(C)CC)N(C)C(=O)[C@H](C2CCCC2)N(C)C(=O)C2(CC(C)(C)C2)NC(=O)[C@@H]2C[C@H](C)CN2C(=O)[C@H](CCc2cc(F)c(C(F)(F)F)c(F)c2)NC(=O)CN(C)C(=O)[C@H](Cc2ccc(C(F)(F)F)cc2)N2CC/C=C\C[C@@H](C2=O)N(C)C(=O)CN(C)C1=O [PP1980] | A (a compound having 10 or more and less than 20 is denoted as A) | 30.1 nM | 0.36 nM | B (a compound having 3 or more and less than 10 is denoted as B)
CCCOC[C@H]1C(=O)N[C@@H]([C@@H](C)CC)C(=O)N(C)CC(=O)N(C)[C@H]2C/C=C\CCN(C2=O)[C@@H](Cc2ccc(C(F)(F)F)cc2)C(=O)N(C)CC(=O)N[C@@H](CCc2ccc(C(F)(F)F)c(OC)c2)C(=O)N2C[C@@H](C)C[C@H]2C(=O)NC2(CC(C)(C)C2)C(=O)N(C)[C@@H](C2CCCC2)C(=O)N(C)[C@H](C(=O)N(C)C)CC(=O)N1C [PP1997] | A (a compound having 10 or more and less than 20 is denoted as A) | 14.2 nM | 0.098 nM | B (a compound having 3 or more and less than 10 is denoted as B)
CCCN(C)C(=O)[C@@H]1CC(=O)N(C)[C@@H](C2CCC2)C(=O)N[C@@H]([C@@H](C)CC)C(=O)N(C)CC(=O)N(C)[C@H]2C/C=C\CCN(C2=O)[C@@H](Cc2ccc(C(F)(F)F)cc2)C(=O)N(C)CC(=O)N[C@@H](CCc2cc(F)c(C(F)(F)F)c(F)c2)C(=O)N2C[C@H](OCC)C[C@H]2C(=O)NC2(CCC2)C(=O)N(C)[C@@H](C2CCCC2)C(=O)N1C [PP1998] | A (a compound having 10 or more and less than 20 is denoted as A) | 16.1 nM | 0.17 nM | B (a compound having 3 or more and less than 10 is denoted as B)
CCCOC[C@H]1C(=O)N[C@@H]([C@@H](C)CC)C(=O)N(C)CC(=O)N(C)[C@H]2C/C=C\CCN(C2=O)[C@@H](Cc2ccc(C(F)(F)F)cc2)C(=O)N(C)CC(=O)N[C@@H](CCc2cc(F)c(C(F)(F)F)c(F)c2)C(=O)N2C[C@@H](C)C[C@H]2C(=O)NC2(CCC2)C(=O)N(C)[C@@H](C2CCCC2)C(=O)N(C)[C@H](C(=O)N(C)CCC)CC(=O)N1C [PP2008] | A (a compound having 10 or more and less than 20 is denoted as A) | 15.2 nM | 0.13 nM | A (a compound having 10 or more and less than 20 is denoted as A)
CCCOC[C@H]1C(=O)N[C@@H]([C@@H](C)CC)C(=O)N(C)CC(=O)N(C)[C@H]2C/C=C\CCN(C2=O)[C@@H](Cc2ccc(C(F)(F)F)cc2)C(=O)N(C)CC(=O)N[C@@H](CCc2ccc(C(F)(F)F)c(OC)c2)C(=O)N2C[C@H](OCC)C[C@H]2C(=O)NC2(CCC2)C(=O)N(C)[C@@H](C2CCCC2)C(=O)N(C)[C@H](C(=O)N(C)CCC)CC(=O)N1C [PP2017] | A (a compound having 10 or more and less than 20 is denoted as A) | 2.5 nM | 0.093 nM | A (a compound having 10 or more and less than 20 is denoted as A)
CCO[C@@H]1C[C@H]2C(=O)NC3(CCC3)C(=O)N(C)[C@@H](C3CCCC3)C(=O)N(C)[C@H](C(=O)N(C)CC)CC(=O)N(C)[C@@H](C3CCC3)C(=O)N[C@@H]([C@@H](C)CC)C(=O)N(C)CC(=O)N(C)[C@H]3C/C=C\CCN(C3=O)[C@@H](Cc3ccc(C(F)(F)F)cc3)C(=O)N(C)CC(=O)N[C@@H](CCc3ccc(C(F)(F)F)c(OC)c3)C(=O)N2C1 [PP2022] | A (a compound having 10 or more and less than 20 is denoted as A) | 2.7 nM | 0.11 nM | A (a compound having 10 or more and less than 20 is denoted as A)
CCCN(C)C(=O)[C@@H]1CC(=O)N(C)[C@@H](C2CCC2)C(=O)N[C@@H]([C@@H](C)CC)C(=O)N(C)CC(=O)N(C)[C@H]2C/C=C\CCN(C2=O)[C@@H](Cc2ccc(C(F)(F)F)cc2)C(=O)N(C)CC(=O)N[C@@H](CCc2ccc(C(F)(F)F)c(OC)c2)C(=O)N2C[C@H](OCC)C[C@H]2C(=O)NC2(CCC2)C(=O)N(C)[C@@H](C2CCCC2)C(=O)N1C [PP2023] | A (a compound having 10 or more and less than 20 is denoted as A) | 10.5 nM | 0.11 nM | B (a compound having 3 or more and less than 10 is denoted as B)
CCCN(C)C(=O)[C@@H]1CC(=O)N(C)[C@@H](CC(F)F)C(=O)N[C@@H]([C@@H](C)CC)C(=O)N(C)CC(=O)N(C)[C@H]2C/C=C\CCN(C2=O)[C@@H](Cc2ccc(C(F)(F)F)cc2)C(=O)N(C)CC(=O)N[C@@H](CCc2ccc(C(F)(F)F)c(OC)c2)C(=O)N2C[C@@H](C)C[C@H]2C(=O)NC2(CCC2)C(=O)N(C)[C@@H](C2CCCC2)C(=O)N1C [PP2024] | A (a compound having 10 or more and less than 20 is denoted as A) | 10.1 nM | 0.082 nM | B (a compound having 3 or more and less than 10 is denoted as B)
CCCN(C)C(=O)[C@@H]1CC(=O)N(C)[C@@H](COCC)C(=O)N[C@@H]([C@@H](C)CC)C(=O)N(C)CC(=O)N(C)[C@H]2C/C=C\CCN(C2=O)[C@@H](Cc2ccc(C(F)(F)F)cc2)C(=O)N(C)CC(=O)N[C@@H](CCc2ccc(C(F)(F)F)c(OC)c2)C(=O)N2C[C@@H](C)C[C@H]2C(=O)NC2(CCC2)C(=O)N(C)[C@@H](C2CCCC2)C(=O)N1C [PP2025] | A (a compound having 10 or more and less than 20 is denoted as A) | 13.4 nM | 0.061 nM | B (a compound having 3 or more and less than 10 is denoted as B)
CCCOC[C@H]1C(=O)N[C@@H]([C@@H](C)CC)C(=O)N(C)CC(=O)N(C)[C@H]2C/C=C\CCN(C2=O)[C@@H](Cc2ccc(C(F)(F)F)cc2)C(=O)N(C)CC(=O)N[C@@H](CCc2ccc(C(F)(F)F)c(OC)c2)C(=O)N2C[C@@H](C)C[C@H]2C(=O)NC2(CCC2)C(=O)N(C)[C@@H](C2CCCC2)C(=O)N(C)[C@H](C(=O)N(C)CC)CC(=O)N1C [PP2027] | A (a compound having 10 or more and less than 20 is denoted as A) | 14 nM | 0.11 nM | B (a compound having 3 or more and less than 10 is denoted as B)
CCCOC[C@H]1C(=O)N[C@@H]([C@@H](C)CC)C(=O)N(C)CC(=O)N(C)[C@H]2C/C=C\CCN(C2=O)[C@@H](Cc2ccc(C(F)(F)F)cc2)C(=O)N(C)CC(=O)N[C@@H](CCc2ccc(C(F)(F)F)c(OC)c2)C(=O)N2C[C@@H](C)C[C@H]2C(=O)NC2(CCC2)C(=O)N(C)[C@@H](C2CCCC2)C(=O)N(C)[C@H](C(=O)N(C)CCC)CC(=O)N1C [PP2028] | A (a compound having 10 or more and less than 20 is denoted as A) | 17.5 nM | 0.11 nM | B (a compound having 3 or more and less than 10 is denoted as B)
CCCN(C)C(=O)[C@@H]1CC(=O)N(C)[C@@H](CCOC)C(=O)N[C@@H]([C@@H](C)CC)C(=O)N(C)CC(=O)N(C)[C@H]2C/C=C\CCN(C2=O)[C@@H](Cc2ccc(C(F)(F)F)cc2)C(=O)N(C)CC(=O)N[C@@H](CCc2ccc(C(F)(F)F)c(OC)c2)C(=O)N2C[C@@H](C)C[C@H]2C(=O)NC2(CCC2)C(=O)N(C)[C@@H](C2CCCC2)C(=O)N1C [PP2029] | A (a compound having 10 or more and less than 20 is denoted as A) | 18.9 nM | 0.069 nM | B (a compound having 3 or more and less than 10 is denoted as B)
CCCN(C)C(=O)[C@@H]1CC(=O)N(C)[C@@H](C2CC2)C(=O)N[C@@H]([C@@H](C)CC)C(=O)N(C)CC(=O)N(C)[C@H]2C/C=C\CCN(C2=O)[C@@H](Cc2ccc(C(F)(F)F)cc2)C(=O)N(C)CC(=O)N[C@@H](CCc2cc(F)c(C(F)(F)F)c(F)c2)C(=O)N2C[C@H](OCC)C[C@H]2C(=O)NC2(CC(C)(C)C2)C(=O)N(C)[C@@H](C2CCCC2)C(=O)N1C [PP2037] | A (a compound having 10 or more and less than 20 is denoted as A) | 16 nM | 0.12 nM | A (a compound having 10 or more and less than 20 is denoted as A)
CCC[C@H]1C(=O)N[C@@H]([C@@H](C)CC)C(=O)N(CCC)CC(=O)N(C)[C@H]2C/C=C\CCN(C2=O)[C@@H](Cc2ccc(C)cc2)C(=O)N(C)CC(=O)N[C@@H](CCc2ccc(C(F)(F)F)c(OC)c2)C(=O)N2C[C@H](OCC)C[C@H]2C(=O)NC2(CC(C)(C)C2)C(=O)N(C)[C@@H](C2CCCC2)C(=O)N(C)[C@H](C(=O)N(C)C)CC(=O)N1C [PP2054] | A (a compound having 10 or more and less than 20 is denoted as A) | 8.5 nM | 0.41 nM | A (a compound having 10 or more and less than 20 is denoted as A)
